Measured values published in US12279617B2, “Agricultural and horticultural chemical agent containing new imidazopyridine-2-carboxamide derivative as active ingredient” (AGRO-KANESHO CO., LTD., priority 2019, dated 2025).

Assays:
Assay type in all cases: in vivo
Plutella xylostella = assay: Insecticidal effect test for Plutella xylostella of Chinese cabbage; conditions: 500 ppm emulsion agent sprayed on Chinese cabbage seedlings; 3rd instar larvae; 5 days after insect release; 25° C.; agony insects counted as dead
Procedure: A sufficient amount of a water diluted solution of an emulsion agent (500 ppm) prepared as in Formulation Example 1 was sprayed with an air brush to the leaves of Chinese cabbage seedlings planted in pots raised for 2 weeks after sowing. The liquid agent was air dried, and five 3rd instar larvae of Plutella xylostella were then inoculated per pot and were kept in a thermostat chamber of 25° C. Five days after the insect release, the life-and-death and the agony of the larvae were investigated, and the insecticidal rate (%) when agony insects were included in dead insects was determined. Incidentally, the test was carried out by using one seedling in each ward. Insecticidal rate (%)=[number of dead larvae)/(number of test larvae)]×100

[1] = system: Spodoptera litura (Fabricius); assay: Larvicide test for Spodoptera litura (Fabricius); conditions: 500 ppm emulsion agent; artificial feed immersed about 60 seconds; 7 days after insect release; 25° C.; agony insects counted as dead
Description: A water diluted solution of an emulsion agent (500 ppm) prepared as in Formulation Example 1 was put in a 120-mL polyethylene cup, and artificial feed Insecta LF (Nosan Corporation, diameter: 5 cm) sliced into 5 mm thickness and cut into ¼ was immersed in the polyethylene cup for about 60 seconds. After the immersion treatment, the resultant artificial feed piece was put in another 120-mL polyethylene cup (diameter: 8 cm, height: 4 cm) with filter paper (diameter: 55 mm) on the bottom together with test insects, and the cup was covered with a lid and was then kept in a thermostat chamber of 25° C. Seven days after the insect release, the life-and-death and the agony of the larvae were investigated, and the insecticidal rate (%) when agony insects were included in dead insects was determined. Incidentally, the test was carried out by using one cup in each ward. Insecticidal rate (%)=[number of dead larvae)/(number of test larvae)]×100

[2] = system: Aculops lycopersici Massee; assay: Adult-killing test for Aculops lycopersici Massee (tomato rust mites); conditions: 500 ppm emulsion agent sprayed 2.0 mL per cup on tomato leaf disks; 3 days after treatment; 25° C.; scored on four scales (100, 80, 50, 0)
Description: A lid provided with a hole (diameter: about 5 mm) at the center was put on a 430-mL polyethylene cup containing water. Circular filter paper with a diameter of 6.5 cm which was cut such that a strip-shaped filter paper piece having a width of about 5 mm was formed was put on the lid, and the filter paper piece was inserted into the hole of the lid so that the tip of the piece extends downward from the hole and immersed in the water in the cup. Furthermore, absorbent cotton was put on the filter paper such that the water in the cup was always supplied to the absorbent cotton. Three leaf disks (1 cm×1 cm) of leaflets of tomato in the early stage of true leaf development were put on the absorbent cotton such that the back of the leaves in the disk form was on top, and small pieces of a leaf parasitized by tomato rust mites were inoculated on the leaves in the disk form. After 24 hours from the inoculation, the small pieces were removed, and the cup was placed in an acrylic cylinder having a height of 50 cm and a diameter of 10 cm. A water diluted solution of an emulsion agent (500 ppm) prepared as in Formulation Example 1 was sprayed in an amount of 2.0 mL per cup using an air brush. After the spraying, the cup was kept in a thermostat chamber of 25° C. Three days after the treatment, the control rate was evaluated on four scales: 100 (control rate: 100%), 80 (control rate: 99% to 80%), 50 (control rate: 79% to 50%), and 0 (control rate: less than 50%), and the next-generation density suppression rate was calculated based on the results by the following equation. Incidentally, the test was carried out by using one cup in each ward. Control rate=(A×100+B×80+C×50)/(A+B+C+D) A: the number of disks for 100, B: the number for disks of 80, C: the number for disks of 50, D: the number of disks for 0.

Row | Structure (SMILES) | insecticidal rate (Plutella xylostella) | insecticidal rate [1] | control rate [2]
1 | CCSc1c(C(=O)N(COC)c2ccc(C(F)(F)F)cc2)nc2ccc(C(F)(F)F)cn12 [A-13, N-(methoxymethyl)-N-{4-(trifluoromethyl)phenyl}-3-(ethylthio)-6-(trifluoromethyl)imidazo[1,2-a]pyridine-2-carboxamide] | 100% | 100% | –
2 | CC[S+]([O-])c1c(C(=O)N(COC)c2ccc(C(F)(F)F)cc2)nc2ccc(C(F)(F)F)cn12 (stereo not drawn) [A-14, N-(methoxymethyl)-N-{4-(trifluoromethyl)phenyl}-3-(ethylsulfinyl)-6-(trifluoromethyl)imidazo[1,2-a]pyridine-2-carboxamide] | 100% | 100% | 100%
3 | CCS(=O)(=O)c1c(C(=O)N(COC)c2ccc(C(F)(F)F)cc2)nc2ccc(C(F)(F)F)cn12 [A-15, N-(methoxymethyl)-N-{4-(trifluoromethyl)phenyl}-3-(ethylsulfonyl)-6-(trifluoromethyl)imidazo[1,2-a]pyridine-2-carboxamide] | 100% | 100% | 100%
4 | CCOCN(C(=O)c1nc2cccc(C(F)(F)F)n2c1S(=O)(=O)CC)c1ccc(C(F)(F)F)cc1 [A-18] | 100% | 100% | –
5 | CCOCN(C(=O)c1nc2cc(C(F)(F)F)ccn2c1[S+]([O-])CC)c1ccc(C(F)(F)F)cc1 (stereo not drawn) [A-20] | 100% | 100% | –
6 | CCOCN(C(=O)c1nc2cc(C(F)(F)F)ccn2c1S(=O)(=O)CC)c1ccc(C(F)(F)F)cc1 [A-21] | 100% | 100% | –
7 | CCOCN(C(=O)c1nc2c(C(F)(F)F)cccn2c1SCC)c1ccc(C(F)(F)F)cc1 [A-22] | 100% | 100% | –
8 | CCOCN(C(=O)c1nc2ccc(Cl)cn2c1SCC)c1ccc(C(F)(F)F)cc1 [A-25] | 100% | 100% | 100%
9 | CCOCN(C(=O)c1nc2ccc(Cl)cn2c1S(=O)(=O)CC)c1ccc(C(F)(F)F)cc1 [A-27] | 100% | 100% | 100%
10 | CCOCN(C(=O)c1nc2ccc(C(F)(F)F)cn2c1SCC)c1ccccc1C(F)(F)F [A-31] | 100% | – | –
11 | CCOCN(C(=O)c1nc2ccc(C(F)(F)F)cn2c1S(=O)(=O)CC)c1ccccc1C(F)(F)F [A-33] | 100% | 100% | 100%
12 | CCOCN(C(=O)c1nc2ccc(C(F)(F)F)cn2c1SCC)c1ccc(SC(F)(F)F)cc1 [A-70] | 100% | 100% | 100%
13 | CCOCN(C(=O)c1nc2ccc(C(F)(F)F)cn2c1S(=O)(=O)CC)c1ccc(SC(F)(F)F)cc1 [A-72] | 100% | 100% | 100%
14 | CCOCN(C(=O)c1nc2ccc(C(F)(F)F)cn2c1S(=O)(=O)CC)c1ccc([S+]([O-])C(F)(F)F)cc1 (stereo not drawn) [A-75] | 100% | 100% | 100%
15 | CCOCN(C(=O)c1nc2ccc(C(F)(F)F)cn2c1SCC)c1ccc(C(F)(F)F)nc1 [A-91] | 100% | 100% | –
16 | CCOCN(C(=O)c1nc2ccc(C(F)(F)F)cn2c1S(=O)(=O)CC)c1ccc(C(F)(F)F)cn1 [A-96] | 100% | 100% | 100%
17 | CCS(=O)(=O)c1c(C(=O)N(CSC)c2ccc(C(F)(F)F)cc2)nc2ccc(C(F)(F)F)cn12 [A-99] | 100% | 100% | –
18 | CCS(=O)(=O)c1c(C(=O)N(CS(C)(=O)=O)c2ccc(C(F)(F)F)cc2)nc2ccc(C(F)(F)F)cn12 [A-102] | 100% | 100% | 100%
19 | CCS(=O)(=O)c1c(C(=O)N(C)c2ccc(C(F)(F)F)cc2)nc2ccc(C(F)(F)F)cn12 [Compound A, reference compound] | 90% | 90% | 100%
20 | CCOCN(C(=O)Cc1ccncc1S(=O)(=O)CC)c1ccc(C(F)(F)F)cc1 [Compound B, reference compound] | 50% | 0% | 100%
